Test results as given in US11547737B2, “Compositions and methods for treating virus infection” (priority 2020, dated 2023).
Read-outs that look alike come from different tables or passages of the source.

Tests used:
[1] = Solid form stability of CHP forms by XRPD (storage, drying, DVS)
[2] = muscle tissues and intestinal segments; cited from earlier work
SARS-CoV-2 = test: microbe, parasite or virus in culture; type: cell-based; details: for antiviral activity: used alone; for EC50: read-out: Effective drug concentration (EC50)
Zn influx into the cell = test: Zn penetration into the cells; type: cell-based
in vitro = details: African green monkey (Cercopithecus aethiops)
RTCs of SARS-CoV = details: in vitro; cited from earlier work
[3] = system: RTCs of equine arteritis virus (EAV); details: in vitro; cited from earlier work
COVID-19 = details: hospitalized COVID-19 patients, compared to standard of care, interim trial results; cited from earlier work

O=C1N[C@@H](Cc2cnc[nH]2)C(=O)N2CCC[C@@H]12 [CHP hydrate, cyclo(-His-Pro) hydrate]
pKa (physchem): ~6.4
form by XRPD ([1]; post various temperature DVS (VT-DVS)): a mixture of Patterns 1 and 2
change in form by XRPD ([1]; post-DVS, 40% RH): no change in form
change in form by XRPD ([1]; stored 40° C./75% RH, seven days): no change
change in form by XRPD ([1]; stored at 80° C., seven days): converted to Pattern 1
change in form by XRPD ([1]; stored at ambient light, seven days): no change

O=C1N[C@@H](Cc2cnc[nH]2)C(=O)N2CCC[C@@H]12 [CHP, Cyclo(-His-Pro)]
zinc absorption and uptake [2]: enhanced zinc absorption and uptake
Selectivity index (SI) CC50/EC50 (SARS-CoV-2; calculated CC50/EC50): ≥ 1.6
antiviral activity (SARS-CoV-2; at a concentration of 10 μmol or lower): does not show antiviral activity
antiviral activity (SARS-CoV-2; at the concentration of 30 mmol): shows an antiviral activity

CCN(CC)CCCC(C)Nc1ccnc2cc(Cl)ccc12 (stereo not drawn) [Chloroquine, chloroquine]
EC50 (SARS-CoV-2; Severe acute respiratory syndrome coronavirus 2, Vero): 13 µM
Zn penetration into the cells (Zn influx into the cell): an increase of Zn penetration into the cells
CC50 (in vitro): > 100 µM

O=C1N[C@@H](Cc2cnc[nH]2)C(=O)N2CCC[C@@H]12 [Pattern 1]
form by XRPD ([1]; Pattern 1 post dynamic vapor sorption (DVS)): changed to Pattern 2

[Zn+2] [Zn, zinc]
RNA-synthesizing activity of the RTCs (RTCs of SARS-CoV): efficiently inhibits
EC50 (SARS-CoV-2; Vero cells, SARS-CoV-2 MOI 0.1, concentration inhibiting virus replication by 50%): 480 µM
antiviral activity (SARS-CoV-2; at concentrations 200 μmol or lower): does not show any antiviral activity
RNA-synthesizing activity of the RTCs [3]: efficiently inhibits
cytotoxicity (cell killing) (Vero cells; at the concentration of 600 μmol): kills the cells
CC50 (Vero cells; read-out: Cytotoxicity (CC50), Vero cells, concentration resulting in 50% cell death): 486 µM

CCN(CCO)CCCC(C)Nc1ccnc2cc(Cl)ccc12 (stereo not drawn) [hydroxychloroquine]
reduction in the mortality (COVID-19): little or no reduction
